Values after ≈ are worked out from the molar mass of the structure shown.
What was measured:
[1] = system: E. coli control strain lacking a β-lactamase; assay: microbe, parasite or virus in culture; format: cell-based; settings: Escherichia coli, no KPC expressed, BLIs at fixed 4 μg/mL
[2] = system: engineered E. coli strain expressing KPC-2 wt; assay: microbe, parasite or virus in culture; format: cell-based; settings: Escherichia coli; KPC-2 wt strain; BLIs at fixed 4 μg/mL
[3] = system: engineered E. coli strain expressing KPC-3^D179Y/T243M; assay: microbe, parasite or virus in culture; format: cell-based; settings: Escherichia coli, BLIs at fixed 4 μg/mL
[4] = system: engineered E. coli strain expressing KPC-2^D179Y/T243M; assay: microbe, parasite or virus in culture; format: cell-based; settings: Escherichia coli, BLIs at fixed 4 μg/mL
KPC-2 WT [5] = target: T1, KPC-2 WT (Klebsiella pneumoniae, UniProt Q9F663); assay: biochemical; settings: inhibition of CENTA hydrolysis, read-out: Apparent affinity Ki^app
KPC-3 WT [6] = target: T2, KPC-3 WT (Klebsiella pneumoniae, UniProt Q9F663, H272Y); assay: biochemical; settings: inhibition of CENTA hydrolysis, read-out: Apparent affinity Ki^app
[7] = system: engineered E. coli strain expressing KPC-3 wt; assay: microbe, parasite or virus in culture; format: cell-based; settings: Escherichia coli; KPC-3 wt strain; BLIs at fixed 4 μg/mL
[8] = system: engineered E. coli strain expressing KPC-2^V240G; assay: microbe, parasite or virus in culture; format: cell-based; settings: Escherichia coli, BLIs at fixed 4 μg/mL
[9] = system: engineered E. coli strain expressing KPC-3^V240G; assay: microbe, parasite or virus in culture; format: cell-based; settings: Escherichia coli, BLIs at fixed 4 μg/mL
[10] = system: engineered E. coli strain expressing KPC-2^D179Y; assay: microbe, parasite or virus in culture; format: cell-based; settings: Escherichia coli, BLIs at fixed 4 μg/mL
[11] = system: engineered E. coli strain expressing KPC-3^D179Y; assay: microbe, parasite or virus in culture; format: cell-based; settings: Escherichia coli, BLIs at fixed 4 μg/mL
[12] = system: E. coli strains expressing KPC-2^D179Y or KPC-2^D179Y/T243M; assay: microbe, parasite or virus in culture; format: cell-based
KPC-3 WT [13] = target: T2, KPC-3 WT; assay: Inhibition kinetics (CENTA hydrolysis, jump dilution), KPC-3 wt; format: biochemical
Description: (§1) Measurements to determine kinetic parameters for hydrolysis, and kinetic parameters for inhibition were performed at ambient temperature in PBS (pH 7.4) containing 0.1 mg/mL bovine serum albumin, using a PowerWaveXS plate reader (BioTek).
(§2) Second-order rate constants (k2/K) denoting the inactivation efficiency of BLIs were determined by continuously measuring CENTA (100 µM) hydrolysis ([28]) in the presence of various concentrations of BLI. Progress curves were fit to equation 3 using GraphPad Prism, where Ai and A0 are the measured and basal absorbance, vi and vs are initial and final velocity, and t is time in seconds. k2/K was derived with equation 4. Koff was determined by the jump dilution method ([24]). Kd was estimated from the ratio between koff and k2/K.
(§3) (3) Ai=A0+vst(vi-vs)[1-e^-(kobs)t/kobs]
(§4) (4) kobs=k-2+(k2/KI)[I]/1+[S]/KM

KPC-2 WT [14] = target: T1, KPC-2 WT; format: biochemical
Description: as §1, §2, §3, §4

KPC-2^V240G = KPC-2^V240G (Klebsiella pneumoniae, UniProt Q9F663, V239G); assay: Inhibition kinetics (CENTA hydrolysis, jump dilution), KPC-2 V240G; format: biochemical
Description: as §1, §2, §3, §4

KPC-3^D179Y = KPC-3^D179Y (Klebsiella pneumoniae, UniProt Q9F663, D178Y/H272Y); assay: Inhibition kinetics (CENTA hydrolysis, jump dilution), KPC-3 D179Y; format: biochemical
Description: as §1, §2, §3, §4

KPC-3^D179Y/T243M = KPC-3^D179Y/T243M (Klebsiella pneumoniae, UniProt Q9F663, D178Y/H272Y/T242M); assay: Inhibition kinetics (CENTA hydrolysis, jump dilution), KPC-3 D179Y/T243M; format: biochemical
Description: as §1, §2, §3, §4

KPC-3^V240G = KPC-3^V240G (Klebsiella pneumoniae, UniProt Q9F663, H272Y/V239G); assay: Inhibition kinetics (CENTA hydrolysis, jump dilution), KPC-3 V240G; format: biochemical
Description: as §1, §2, §3, §4

KPC-2^D179Y = KPC-2^D179Y (Klebsiella pneumoniae, UniProt Q9F663, D178Y); assay: Inhibition kinetics (CENTA hydrolysis, jump dilution), KPC-2 D179Y; format: biochemical; settings: KPC-2 D179Y
Description: as §1, §2, §3, §4

KPC-2^D179Y/T243M = KPC-2^D179Y/T243M (Klebsiella pneumoniae, UniProt Q9F663, D178Y/T242M); assay: Inhibition kinetics (CENTA hydrolysis, jump dilution), KPC-2 D179Y/T243M; format: biochemical; settings: KPC-2 D179Y/T243M
Description: as §1, §2, §3, §4

Nc1nc(/C(=C/CC(=O)O)C(=O)N[C@@H]2C(=O)N3C(C(=O)O)=CCS[C@H]23)cs1 [CTB, ceftibuten]
MIC [1]: 1 µg/mL (≈ 2.44 µM)
MIC [2]: 16 µg/mL (≈ 39 µM)
MIC [3]: 16 µg/mL (≈ 39 µM)
MIC [4]: 16 µg/mL (≈ 39 µM)
Ki (KPC-2 WT [5]): 159 ± 10 µM
Ki (KPC-3 WT [6]): 368 ± 26 µM
MIC [7]: 32 µg/mL (≈ 78 µM)
MIC [8]: 64 µg/mL (≈ 156 µM)
MIC [9]: 32 µg/mL (≈ 78 µM)
MIC [10]: 16 µg/mL (≈ 39 µM)
MIC [11]: 32 µg/mL (≈ 78 µM)

C[C@@H](O)[C@H]1C(=O)N2C(C(=O)O)=C(S[C@@H]3CN[C@H](C(=O)N(C)C)C3)[C@H](C)[C@H]12 [MEM, meropenem]
MIC [1]: 0.03 µg/mL (≈ 0.0782 µM)
MIC increase relative to the control strain [12]: eightfold
MIC [2]: 32 µg/mL (≈ 83.4 µM)
MIC [3]: 0.12 µg/mL (≈ 0.313 µM)
MIC [4]: 0.25 µg/mL (≈ 0.652 µM)
MIC [7]: 16 µg/mL (≈ 41.7 µM)
MIC [8]: 8 µg/mL (≈ 20.9 µM)
MIC [9]: 16 µg/mL (≈ 41.7 µM)
MIC [10]: 0.25 µg/mL (≈ 0.652 µM)
MIC [11]: 0.12 µg/mL (≈ 0.313 µM)

NC(=O)[C@@H]1CC[C@@H]2CN1C(=O)N2OS(=O)(=O)O [AVI, avibactam]
t1/2 (KPC-3 WT [13]): 10.1 ± 0.1 min
t1/2 (KPC-2 WT [14]): 21.4 ± 0.07 min
t1/2 (KPC-2^V240G): 21.5 ± 0.06 min
t1/2 (KPC-3^D179Y): 12.8 ± 0.9 min
t1/2 (KPC-3^D179Y/T243M): 22.5 ± 3.5 min
t1/2 (KPC-3^V240G): 10.7 ± 0.1 min
t1/2 (KPC-2^D179Y): 205 ± 10 min
t1/2 (KPC-2^D179Y/T243M): 198 ± 8 min
